What was measured:
Assay in all cases: relative viability (nuclei count vs DMSO), 5 days (fraction); higher = more cells survive
[1] = test system: EMC-BAC-2
In short: (§1)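 For relative viability, nuclei counts in treated wells were divided by those in vehicle wells. Lung cancer cell lines had been pin-tool dosed in 1536-well plates the day after seeding and cultured for 5 days, then fixed and stained in one step (final 0.05% Triton X-100, 1% formaldehyde, 1 ug/ml Hoechst) and imaged at 4×. Doses were one drug alone or a fixed anchor-drug dose plus five library-drug doses (not always all listed) in √10 steps, and values are duplicate-plate medians.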

[2] = test system: NCI-H1755
In short: as §1

[3] = test system: NCI-H1944
In short: as §1

[4] = test system: LC-2-ad
In short: as §1

[5] = test system: NCI-H2087
In short: as §1

[6] = test system: SK-LU-1
In short: as §1

[7] = test system: SK-MES-1
In short: as §1

[8] = test system: COR-L 105
In short: as §1

[9] = test system: PC-3 [JPC-3]
In short: as §1

[10] = test system: NCI-H661
In short: as §1

[11] = test system: NCI-H2347
In short: as §1

[12] = test system: NCI-H2085
In short: as §1

[13] = test system: CAL-12T
In short: as §1

[14] = test system: LK-2
In short: as §1

[15] = test system: NCI-H1793
In short: as §1

[16] = test system: H3255
In short: as §1

[17] = test system: NCI-H2228
In short: as §1

[18] = test system: NCI-H1651
In short: as §1

[19] = test system: NCI-H1915
In short: as §1

[20] = test system: NCI-H1437
In short: as §1

[21] = test system: EKVX
In short: as §1

[22] = test system: LXF-289
In short: as §1

[23] = test system: NCI-H1395
In short: as §1

Cc1cnc(-c2cnc(NCCNc3ccc(C#N)cn3)nc2-c2ccc(Cl)cc2Cl)[nH]1 + CS(=O)(=O)N1CCN(Cc2cc3nc(-c4cccc5[nH]ncc45)nc(N4CCOCC4)c3s2)CC1 [Pictilisib] (partner 1 µM) was tested, and the relative viability ([1]; first compound 0.08 µM) was 0.579, the relative viability ([1]; first compound 0.253 µM) was 0.525 and the relative viability ([1]; first compound 0.8 µM) was 0.515. For the same compound, the relative viability ([1]; first compound 2.53 µM) was 0.567, the relative viability ([2]; first compound 0.08 µM) was 0.507 and the relative viability ([2]; first compound 0.253 µM) was 0.411. For the same compound, the relative viability ([2]; first compound 0.8 µM) was 0.386, the relative viability ([2]; first compound 2.53 µM) was 0.559 and the relative viability ([3]; first compound 0.08 µM) was 0.342. It also gave a relative viability ([3]; first compound 0.8 µM) of 0.334, a relative viability ([3]; first compound 2.53 µM) of 0.38 and a relative viability ([4]; first compound 0.08 µM) of 0.489. For the same compound, the relative viability ([4]; first compound 0.8 µM) was 0.441, the relative viability ([4]; first compound 2.53 µM) was 0.468 and the relative viability ([5]; first compound 0.08 µM) was 0.853. It also gave a relative viability ([5]; first compound 0.253 µM) of 0.754, a relative viability ([5]; first compound 0.8 µM) of 0.975 and a relative viability ([5]; first compound 2.53 µM) of 1.06. It also gave a relative viability ([6]; first compound 0.08 µM) of 0.701, a relative viability ([6]; first compound 0.253 µM) of 0.604 and a relative viability ([6]; first compound 0.8 µM) of 0.623. For the same compound, the relative viability ([6]; first compound 2.53 µM) was 0.754, the relative viability ([7]; first compound 0.08 µM) was 0.406 and the relative viability ([7]; first compound 0.253 µM) was 0.378. For the same compound, the relative viability ([7]; first compound 0.8 µM) was 0.38, the relative viability ([7]; first compound 2.53 µM) was 0.403 and the relative viability ([8]; first compound 0.08 µM) was 0.344. For the same compound, the relative viability ([8]; first compound 0.253 µM) was 0.468, the relative viability ([8]; first compound 0.8 µM) was 0.176 and the relative viability ([8]; first compound 2.53 µM) was 0.385. The relative viability ([9]; first compound 0.08 µM) was 0.772, the relative viability ([9]; first compound 0.253 µM) was 0.666 and the relative viability ([9]; first compound 0.8 µM) was 0.798. For the same compound, the relative viability ([9]; first compound 2.53 µM) was 0.79, the relative viability ([10]; first compound 0.08 µM) was 0.476 and the relative viability ([10]; first compound 0.253 µM) was 0.395. The relative viability ([10]; first compound 0.8 µM) was 0.476, the relative viability ([10]; first compound 2.53 µM) was 0.393 and the relative viability ([11]; first compound 0.08 µM) was 0.931. It also gave a relative viability ([11]; first compound 0.253 µM) of 0.416, a relative viability ([11]; first compound 0.8 µM) of 0.698 and a relative viability ([11]; first compound 2.53 µM) of 0.6. It also gave a relative viability ([12]; first compound 0.08 µM) of 0.551, a relative viability ([12]; first compound 0.253 µM) of 0.517 and a relative viability ([12]; first compound 0.8 µM) of 0.455. The relative viability ([12]; first compound 2.53 µM) was 0.43, the relative viability ([13]; first compound 0.253 µM) was 0.52 and the relative viability ([13]; first compound 2.53 µM) was 0.53. The relative viability ([14]; first compound 0.08 µM) was 0.646, the relative viability ([14]; first compound 0.253 µM) was 0.577 and the relative viability ([14]; first compound 0.8 µM) was 0.618. For the same compound, the relative viability ([14]; first compound 2.53 µM) was 1.11, the relative viability ([15]; first compound 0.08 µM) was 0.315 and the relative viability ([15]; first compound 0.253 µM) was 0.351. It also gave a relative viability ([15]; first compound 0.8 µM) of 0.412, a relative viability ([15]; first compound 2.53 µM) of 0.596 and a relative viability ([16]; first compound 0.08 µM) of 0.554. The relative viability ([16]; first compound 0.253 µM) was 0.463, the relative viability ([16]; first compound 0.8 µM) was 0.469 and the relative viability ([16]; first compound 2.53 µM) was 0.476. It also gave a relative viability ([17]; first compound 0.08 µM) of 0.263, a relative viability ([17]; first compound 0.253 µM) of 0.229 and a relative viability ([17]; first compound 0.8 µM) of 0.569. It also gave a relative viability ([17]; first compound 2.53 µM) of 0.287, a relative viability ([18]; first compound 0.08 µM) of 0.67 and a relative viability ([18]; first compound 0.253 µM) of 0.485. For the same compound, the relative viability ([18]; first compound 0.8 µM) was 0.524, the relative viability ([18]; first compound 2.53 µM) was 0.686 and the relative viability ([19]; first compound 0.08 µM) was 0.958. The relative viability ([19]; first compound 0.8 µM) was 0.939, the relative viability ([19]; first compound 2.53 µM) was 1.01 and the relative viability ([20]; first compound 0.08 µM) was 0.521. It also gave a relative viability ([20]; first compound 0.253 µM) of 0.399, a relative viability ([20]; first compound 0.8 µM) of 0.483 and a relative viability ([20]; first compound 2.53 µM) of 0.379. The relative viability ([21]; first compound 0.08 µM) was 0.462, the relative viability ([21]; first compound 0.253 µM) was 0.394 and the relative viability ([21]; first compound 0.8 µM) was 0.374. It also gave a relative viability ([21]; first compound 2.53 µM) of 0.392, a relative viability ([22]; first compound 0.08 µM) of 0.841 and a relative viability ([22]; first compound 0.253 µM) of 0.745. For the same compound, the relative viability ([22]; first compound 0.8 µM) was 0.845, the relative viability ([22]; first compound 2.53 µM) was 0.877 and the relative viability ([23]; first compound 0.08 µM) was 0.759. The relative viability ([23]; first compound 0.253 µM) was 0.585, the relative viability ([23]; first compound 0.8 µM) was 0.601 and the relative viability ([23]; first compound 2.53 µM) was 0.65.
